Data from patent US20130195926A1, “MODULATION OF NITRIC OXIDE SIGNALING TO NORMALIZE TUMOR VASCULATURE” (The General Hospital Corporation, priority 2007, published 2013).

Tests used:
U87 tumors = assay: Pimonidazole hypoxia staining and vessel density in U87 tumors grown in the hind leg; format: in vivo, mice; conditions: for positive staining for hypoxia (Hypoxyprobe-1 adducts): subcutaneous hind leg tumors ~100 mm3, Rag-1-/- mice; for vessel density: subcutaneous hind leg tumors, compared to U87MG tumors
Procedure: To evaluate tumor hypoxia, a hypoxia marker pimonidazole was used (Winkler, F., et al. 2004 Cancer Cell 6, 553-563). Briefly, when tumors grown in the hindleg reached about 100 mm^3, 60 mg/kg pimonidazole was injected i.v. into the mice bearing subcutaneous tumors (100 mm^3) 1 hr before perfusion fixation following biotinylated lectin injection. Blood vessels were stained with a Alexa 488-conjugated streptavidin (Vector Laboratory). Pimonidazole-adducts in hypoxic cells were detected using Hypoxyprobe-1 kit (Millipore) stained with tetramethylrhodamine isothiocyanate (TRITC)-conjugated goat antibody to mouse IgG. Cell nuclei were counter-stained by 4,6-diamidino-2-phenylindole (DAPI). Fluorescent images were taken using confocal laser-scanning microscopy, and vessel density and the pimonidazole-positive hypoxic area were determined using NIH image 1.63 macro (Winkler, F., et al. 2004 Cancer Cell 6, 553-563).
The macro identified TRITC-pimonidazole positive area and Alexa 488-positive perfused vessel area and binarized them at the same threshold. The percent of pimonidazole positive area to the total area was determined, and then the number and the perimeters of the binarized vascular areas were quantified on image J software. These parameters were determined in three-five photographic areas from each tumor (630×630 μm^2 each).
The extent of hypoxia was determined in U87MG, U87-shRNA58, and U87-shRNA150 tumors utilizing a redox marker pimonidazole (Hypoxyprobe™-1 Kit, Millipore). To determine the level of hypoxia during a commonly used experimental radiation treatment, tumors were grown to ˜100 mm^3 subcutaneously in the hind leg of Rag-1^−/− mice. […] In nNOS silenced U87-shRNA58 tumors (U87-shRNA58 and U87-shRNA150), most of tumor cells have blood vessels in close proximity, and positive staining for hypoxia was hardly seen (FIG. 9A). In agreement with previous intravital observations in the cranium, increased vessel density was found in U87-shRNA58 and U87-shRNA150 tumors, as compared to U87MG tumors (FIG. 9B-C). Improved vascular morphology and function induced by the selective vascular localization of NO alleviate tumor tissue hypoxia (FIG. 9D). A reduction in hypoxia inducible factor-1α (HIF-1α) protein levels was also observed in the U87-shRNA58 and U87-shRNA150 tumors, as compared to U87MG tumors (FIG. 9E).

nNOS = assay: Western blot of nNOS knockdown in cultured nNOS shRNA-transfected U87 cells; format: cell-based, human
Procedure: U87MG (American Type Culture Collection HTB-14) and GL261 (generous gift from Dr. G. Yancey Gillespie at University of Alabama) tumor cells were cultured in Dulbecco's Modified Eagle's Medium with 10% fetal bovine serum at 37° C. in a humidified 5% CO2 incubator. The following short-hairpin RNAs (shRNAs) for nNOS were designed using a commercial service program for small interfering RNA (siRNA) target finder (http://www.ambion.com/techlib/misc/siRNA_finder.html): nNOS-shRNA58, CAAAGAGATCGACACCATC (sense), […] (antisense); nNOSshRNA97, CACGCATGTCTGGAAAGGC (sense), […](antisense); nNOS-shRNA150, GGTCTATCCAATGTCCACA (sense), […] (antisense). The DNA oligonucleotides consist of a 19-nucleotide sense siRNA sequence linked to its reverse complementary antisense siRNA sequence by a short spacer (TTCAAGAGA).
Each DNA oligonucleotide was prepared with nucleotide overhangs with BamHI and HindIII restriction sites added to the 5′ and 3′ end of the DNA oligonucleotides and subcloned into the pSilencer 3.1 H-1-hygro (Ambion) that allows transcription of the shRNA. These expression vectors were stably transfected into U87MG cells using LipofectAMINE 2000 (Invitrogen) following the manufacturer's instruction.
The stably transfected cells were selected with 80 μg/ml of hygromycin B. The expression of nNOS protein in U87 tumor cells and tissues was determined by'Western blot analysis. […]
Equal amounts of 60 micrograms of protein per sample were separated on 7.5% SDS polyacrylamide gels, transferred onto polyvinylidene fluoride membrane (Millipore), incubated with primary antibodies followed by secondary antibodies (the same antibodies used in immunohistochemistry studies. See Immunohistochemistry methods below), and detected using enhanced chemiluminescence (GE Healthcare) by exposure on autoradiography films (Kodak) (Xu, L., et al. 2005 Cancer Res. 65, 5711-5719; Canneliet, P., et al. 1998 Nature 394, 485-490; Xu, L., et al. 2002 Journal of Biological Chemistry 277, 11368-11374 (2002); and Xu, L., et al. 2004 Clinical Cancer Research 10, 701-707). […]

Substance	positive staining for hypoxia (Hypoxyprobe-1 adducts) (U87 tumors)	vessel density (U87 tumors)	Knockdown efficiency of nNOS in vitro (nNOS) [%]
shRNA150: short-hairpin RNA for nNOS, GGTCTATCCAATGTCCACA (sense), TGTGGACATTGGATAGACCTT (antisense), in pSilencer 3.1 H-1-hygro	hardly seen	increased	99
shRNA58: short-hairpin RNA for nNOS, CAAAGAGATCGACACCATC (sense), GATGGTGTCGATCTCTTTGTT (antisense), in pSilencer 3.1 H-1-hygro, stably transfected into U87MG	hardly seen	increased	99
